According to patent publication US20260234165A1, “MACROCYCLIC COMPOUNDS, PREPARATION METHOD THEREFOR, AND USE THEREOF” (GENFLEET THERAPEUTICS (SHANGHAI) INC., priority 2004, published 2026):
Like-named read-outs stand apart in the source and are kept apart here.

Assays:
NCI-H441 cells = assay: 3D cell proliferation assay (CellTiter Glo-3D), NCI-H441; assay type: cell-based, human; conditions: medium with 2% FBS, read-out: H441 AP IC50
Excerpt: MIA PaCa-2 cells were purchased from ATCC, Cat. No. CRL-1420; AsPC-1 cells were purchased from ATCC, Cat. No. CRL-1682; NCI-H441 cells were purchased from ATCC, Cat. No. HTB-174: NCI-H1975 cells were purchased from ATCC. Cat. No. CRL-5908; DMEM medium was purchased from Gibco, Cat. No. 11995-065: RPMI-1040 medium was purchased from Gibco. Cat. No. H 18754093; FBS was purchased from Gibco, Cat. No. 10099-141C. penicillin, streptomycin double-antibiotic solution (PS) was purchased from Gibco, Cat. No. 15140-122; Horse serum was purchased from Gibco. Cat. No. 16050130: trypsin (containing EDTA) was purchased from Gibco, Cat. No. 25200-072; DMSO was purchased from VWRAMRESCO, Cat. No. 0231-500ML; 384-well cell culture plates were purchased from Corning, Cat. No. 3830; white-bottomed, opaque 384-well assay plates were purchased from Corning, Cat. No. 3570. CellTiter Glo-3D) kit was purchased from Promega. Cat. No. G9683; cell counter was purchased from CHEMOMETEC, model: NC-200: microplate reader was purchased from PerkinElmer, model: EnVision.
MIA PaCa-2, a human pancreatic cancer cell strain endogenously containing a KRAS^G12C mutation, was cultured in a complete medium containing DMEM+10% FBS+2.5% Horse serum+1% PS. AsPC-1, a human pancreatic cancer cell strain endogenously containing a […] mutation, was cultured in a complete medium containing RPMI-1640+10% FBS+1% PS. NCI-H441 cells, a human lung cancer cell strain endogenously containing a […] mutation, were cultured in a complete medium containing RPMI-1640+10% FBS+1% PS. NCI-H1975, a KRAS wild-type human lung cancer cell strain whose cell proliferation depends on KRAS activity, was cultured in a complete medium containing RPMI-1640+10% FBS+1% PS.
The cells were digested with trypsin (containing EDTA), collected in their respective low-serum complete media containing 2% FBS (for MIA Paca-2 cell culture: DMEM+2% FBS+0.5% Horse serum+1% PS), and counted. After the cell density was adjusted as required, 200 MIA PaCa-2 cells, 800 AsPC-1 cells, 800 NCI-H441 cells, or 400 NCI-H1975 cells per well were seeded into a 384-well cell culture plate, with the volume of the medium in each well being 45 μL. The cell culture plate was incubated in an incubator at 37° C. with 5% CO2, overnight. A series of 3.16-fold gradient dilutions of a 1000× compound stock solution were prepared with DMSO, and then diluted 100-fold with the complete medium containing 2% FBS described above to give 10- compound stock solutions. On the day after cell seeding, 5 μL of the 10- compound stock solution was added to each cell culture well. As a result, the final concentration of the compound in the cell culture well became 1×, and the DMSO content in the well was 0.1%. In addition to the compound-treated wells described above, cell-containing DMSO control wells (with 5 μL of the complete medium containing 1% DMSO added to each well) and cell-free medium control wells (containing 50 μL of the complete medium with 2% FBS) were also set. The culture plate was incubated in an incubator at 37° C. with 5% CO2 for another 5 days, and then 30 μL of CellTiter-Glo working solution was added to each well. The mixture was well mixed, incubated for 30 min, left to stand at room temperature for 30 min, and then transferred to a white-bottomed, opaque 384-well assay plate at 40 μL/well. The chemiluminescence values (RLU) were measured using a microplate reader, and the cell proliferation inhibition rate for each well was calculated: IR (%)=(RLUDMSO—RLUcompound)/(RLUDMSO−RLUblank)×100%, where RLUDMSO is the average RLU signal value from the DMSO control well samples, RLUblank is the average RLU signal value from the medium control well samples, and RLUcompound is the RLU signal value from the compound-treated well samples. […]

[1] = system: p-ERK in NCI-H441 cells (KRAS G12V mutation); assay: Cell p-ERK assay (HTRF) in NCI-H441 cells; assay type: cell-based, human; conditions: NCI-H441 cells, 3 h compound incubation, HTRF p-ERK T202/Y204, read-out: H441 p-ERK IC50
Protocol: AsPC-1 cells were purchased from ATCC, Cat. No. CRL-1682: NCI-H441 cells were purchased from ATCC, Cat. No. HTB-174: RPMI-1640 medium was purchased from Gibco, Cat. No. I1875-093: FBS was purchased from Gibco, Cat. No. 10099-141C: penicillin/streptomycin double-antibiotic solution (PS) was purchased from Gibco, Cat. No. 15140-122: trypsin (containing EDTA) was purchased from Gibco, Cat. No. 25200-072; DMSO was purchased from VWRAMRESCO, Cat. No. 0231-500ML; 96-well cell culture plates were purchased from Corning, Cat. No. 3599: white-bottomed, opaque 96-well plates were purchased from Cisbio, Cat. No. 66PL96025; Advance ERK phospho-T202/Y204 kit was purchased from Cisbio, Cat. No. 64AERPEH; cell counter was purchased from CHEMOMETEC, model: NC-200; microplate reader was purchased from PerkinElmer, model: EnVision.
AsPC-1, a human pancreatic cancer cell strain endogenously containing a KRAS^G12D mutation, was cultured in a complete medium containing RPMI-1640+10% FBS+1% PS. NCI-H441, a human non-small cell lung cancer cell strain endogenously containing a KRAS^G12V mutation, was cultured in a complete medium containing RPMI-1640+10% FBS+1% PS.
The cells were digested with trypsin (containing EDTA), collected in their corresponding complete media, and counted. The density of the cell suspensions was adjusted with their corresponding complete media, and 10000 AsPC-1 cells or 20000 NCI-H441 cells per well were seeded into a 96-well cell culture plate, with the volume of the medium in each well being 80 μL.
The cell culture plate was incubated in an incubator at 37° C. with 5% CO2 overnight. A series of 3.16-fold gradient dilutions of a 1000- compound stock solution were prepared with DMSO, and then diluted 200-fold with the complete medium described above to give 5′ compound stock solutions. On the day after cell seeding, 20 μL of the 5× compound stock solution was added to each cell culture well. As a result, the final concentration of the compound in the cell culture well became 1×, and the DMSO content in the well was 0.1%. In addition to the compound-treated wells described above, cell-containing DMSO control wells were also set. A complete medium containing 0.5% DMSO was added at 20 μL/well. After the mixture was well mixed, the culture plate was incubated in the incubator at 37° C. with 5% CO2 for another 3 h. The medium was then removed from the culture wells, and 50 μL of cell lysis buffer (from Advance ERK phospho-T202,Y204 kit) was added to each well. The mixture was well mixed and incubated for 30 min. Then, 16 μL of the mixture was transferred to a white-bottomed, opaque 96-well assay plate, and separately, 16 μL of cell lysis buffer was added to additional wells (serving as blank wells) in the assay plate. After the transfer was completed, 4 μL of p-ERK HTRF antibody mixture (from Advance ERK phospho-T202/Y204 kit) was added to each well of the assay plate, followed by a 4-hour incubation. The HTRF signal values (RLU) were then measured using a microplate reader, and the inhibition rate of the compound against p-ERK levels was calculated as follows: IR (%)=(RLUDMSO−RLUcompound)/(RLUDMSO−RLUblank)×100%, where RLUDMSO is the average HTRF signal value from the DMSO control well samples, RLUblank is the average HTRF signal value from the blank well samples, and RLUcompound is the HTRF signal value from the compound-treated well samples. Using an XLfit software, the IR (%) values were plotted against the logarithm of the compound concentrations, and the dose-response curves were fitted using the four-parameter method to calculate the IC50 values.

[2] = Homo sapiens, NCI-H441, 3D cell proliferation (CellTiter Glo-3D)
[3] = 3D cell proliferation (CellTiter Glo-3D)

IC50 (NCI-H441 cells; [2])	IC50 (NCI-H441 cells; [3])	SMILES	further results
0.0314 µM		CCn1c(-c2cc(N3CCN(C)CC3)cnc2[C@H](C)OC)c2c3cc(ccc31)-c1csc(n1)C[C@H](Nc1ccon1)C(=O)N1CCC[C@H](N1)C(=O)OCC(C)(C)C2 (atropisomer, axis not shown) [Compound Z459]	
0.0742 µM		CCn1c(-c2cc(N3CCN(C)CC3)cnc2[C@H](C)OC)c2c3cc(ccc31)-c1csc(n1)C[C@H](Nc1nnc3n1CCCC3)C(=O)N1CCC[C@H](N1)C(=O)OCC(C)(C)C2 (atropisomer, axis not shown; (Ra)) [Compound Z423]	IC50 ([1]; Homo sapiens, NCI-H441, 3 h): 0.0333 µM
0.101 µM		CCn1c(-c2cc(N3CCN(C)CC3)cnc2[C@H](C)OC)c2c3cc(ccc31)-c1csc(n1)C[C@H](Nc1nnc3n1CC(C)CC3)C(=O)N1CCC[C@H](N1)C(=O)OCC(C)(C)C2 (atropisomer, axis not shown; (Ra)) [Compound Z431]	IC50 ([1]; Homo sapiens, NCI-H441, 3 h): 0.0444 µM
0.168 µM		CCn1c(-c2cc(N3CCN(C)CC3)cnc2[C@H](C)OC)c2c3cc(ccc31)-c1csc(n1)C[C@H](N(C)C)C(=O)N1CCC[C@H](N1)C(=O)OCC(C)(C)C2 (atropisomer, axis not shown; (Ra)) [Compound Z458]	
	0.00233 µM	CNCCn1c(-c2cc(C#CCN3CCS(=O)(=O)CC3)cnc2[C@H](C)OC)c2c3cc(ccc31)-c1csc(n1)C[C@H](NC(=O)[C@H]1[C@H](C)[C@@H]1C)C(=O)N1CCC[C@H](N1)C(=O)OCC(C)(C)C2 (atropisomer, axis not shown; (Ra)) [Compound Z954, (1r,2R,3S)—N-((6^3S,4S,Z)-1^2-(5-(3-(1,1-dioxidodimorpholino)prop-1-yn-1-yl)-(Ra)-2-((S)-1-methoxyethyl)pyridin-3-yl)-10,10-dimethyl-1^1-(2-(methylamino)ethyl)-5,7-dioxo-6^1,6^2,6^3,6^4,6^5,6^6-hexahydro-1^1H-8-oxa-2-(4,2)-thiazola-1(5,3)-indola-6(1,3)-pyridazinacycloundecaphane-4-yl)-2,3-dimethylcyclopropane-1-carboxamide]	
0.0072 µM		CCn1c(-c2cc(C#CCN3CCCOCC3)cnc2[C@H](C)OC)c2c3cc(ccc31)-c1csc(n1)C[C@H](Nc1nnc3cc(I)ccn13)C(=O)N1CCC[C@H](N1)C(=O)OCC(C)(C)C2 (atropisomer, axis not shown; (Ra)) [Compound Z970, (6^3S,4S,Z)-1^2-(Ra)-(5-(3-(1,4-oxazepan-4-yl)prop-1-yn-1-yl)-2-((S)-1-methoxyethyl)pyridin-3-yl)-1^1-ethyl-4-((7-iodo-[1,2,4]triazolo[4,3-a]pyridin-3-yl)amino)-10,10-dimethyl-6^1,6^2,6^3,6^4,6^5,6^6-hexahydro-1^1H-8-oxa-2(4,2)-thiazola-1(5,3)-indola-6(1,3)-pyridazinacycloundecaphane-5,7-dione]	
0.965 µM		[2H]C([2H])([2H])O[C@@H](C)c1ncc(N2CCN3CCOC[C@@H]3C2)cc1-c1c2c3cc(ccc3n1CC)-c1csc(n1)C[C@H](NC(=O)[C@H]1[C@H](C)[C@@H]1C)C(=O)N1CCC[C@H](N1)C(=O)OCC(C)(C)C2 (atropisomer, axis not shown; (Sa)) [Compound Z74, (1r,2R,3S)—N-((6^3S,4S,Z)-1^1-ethyl-(Sa)-1^2-(5-((S)-hexahydropyrazino[2,1-c][1,4]oxazin-8(1H)-yl)-2-((S)-1-(methoxy-d3)ethyl)pyridin-3-yl)-10,10-dimethyl-5,7-dioxo-6^1,6^2,6^3,6^4,6^5,6^6-hexahydro-1^1H-8-oxa-2(4,2)-thiazola-1(5,3)-indola-6(1,3)-pyridazinacycloundecaphane-4-yl)-2,3-dimethylcyclopropane-1-carboxamide]	
	0.0963 µM	CCn1c(-c2cc(OCCN3CC[S+]([O-])CC3)cnc2[C@H](C)OC)c2c3cc(ccc31)-c1csc(n1)C[C@H](NC(=O)[C@H]1[C@H](C)[C@@H]1C)C(=O)N1CCC[C@H](N1)C(=O)OCC(C)(C)C2 (atropisomer, axis not shown; (Sa)) [Compound Z600-1]	IC50 [1]: 0.0827 µM
	0.00257 µM	CCn1c(-c2cc(C#CCN3CCN(C(=O)CO)CC3)cnc2C(C)OC)c2c3cc(ccc31)-c1csc(n1)CC(Nc1nnc3cc(C)ccn13)C(=O)N1CCCC(N1)C(=O)OCC(C)(C)C2 [Compound Z982, (6^3S,4S,Z)-1^1-ethyl-1^2-(5-(3-(4-(2-hydroxyacetyl)piperazin-1-yl)prop-1-yn-1-yl)-2-((S)-1-methoxyethyl)pyridin-3-yl)-10,10-dimethyl-4-((7-methyl-[1,2,4]triazolo[4,3-a]pyridin-3-yl)amino)-6^1,6^2,6^3,6^4,6^5,6^6-hexahydro-1^1H-8-oxa-2(4,2)-thiazola-1(5,3)-indola-6(1,3)-pyridazinacycloundecaphane-5,7-dione]	
